Source: the NIST ThermoML archive (doi:10.1016/j.jct.2014.04.016)
Where “and” joins values, the source holds several entries; their conditions need not be identical. Identical values can stand only once. Numbers after ± are expanded uncertainties.

Experiment: xn = mol fraction of the nth substance listed
Details: 100 kPa; for electrical conductivity: Alternating current cell with electrodes; for mass density: Vibrating tube method; for viscosity: Concentric cylinders viscometry

CCCCCCCCOS(=O)(=O)[O-].CCn1cc[n+](C)c1 [1-ethyl-3-methylimidazolium octyl sulfate] + O
Details	electrical conductivity	mass density [kg/m3]	viscosity
251.8 K, Glass, x1 = 0.5001	0.013 ± 0.003 S/m	–	–
251.9 K, Glass, x1 = 0.5001	0.014 ± 0.003 S/m	–	–
254.1 K, Glass, x1 = 0.5001	0.016 S/m and 0.017 S/m	–	–
255.1 K, Glass, x1 = 0.5001	0.018 ± 0.003 S/m	–	–
256.1 K, Glass, x1 = 0.5001	0.02 ± 0.003 S/m	–	–
257.1 K, Glass, x1 = 0.4688	0.023 ± 0.003 S/m	–	–
257.1 K, Glass, x1 = 0.5001	0.022 ± 0.003 S/m	–	–
258.1 K, Glass, x1 = 0.5001	0.023 ± 0.003 S/m	–	–
259.1 K, Glass, x1 = 0.4688	0.028 ± 0.003 S/m	–	–
259.1 K, Liquid, x1 = 0.5001	0.025 ± 0.003 S/m	–	–
261.1 K, Glass, x1 = 0.4688	0.032 S/m and 0.031 S/m	–	–
261.1 K, Liquid, x1 = 0.0803	0.56 ± 0.012 S/m	–	–
261.1 K, Liquid, x1 = 0.5001	0.029 ± 0.003 S/m	–	–
263.1 K, Glass, x1 = 0.2119	0.228 ± 0.005 S/m	–	–
263.1 K, Glass, x1 = 0.4688	0.036 S/m and 0.038 S/m	–	–
263.1 K, Liquid, x1 = 0.0586	0.703 ± 0.016 S/m	–	–
263.1 K, Liquid, x1 = 0.0803	0.611 ± 0.013 S/m	–	–
263.1 K, Liquid, x1 = 0.5001	0.034 ± 0.003 S/m	–	–
264.1 K, Glass, x1 = 0.1197	0.479 ± 0.011 S/m	–	–
265.1 K, Liquid, x1 = 0.0803	0.667 S/m and 0.622 S/m	–	–
266.1 K, Glass, x1 = 0.4688	0.045 ± 0.003 S/m	–	–
266.1 K, Liquid, x1 = 0.0803	0.688 ± 0.015 S/m	–	–
267.1 K, Glass, x1 = 0.4688	0.049 ± 0.003 S/m	–	–
268.1 K, Glass, x1 = 0.1197	0.566 ± 0.012 S/m	–	–
268.1 K, Glass, x1 = 0.2119	0.29 ± 0.007 S/m	–	–
268.1 K, Glass, x1 = 0.4108	0.085 ± 0.003 S/m	–	–
268.1 K, Glass, x1 = 0.4688	0.051 ± 0.003 S/m	–	–
268.1 K, Liquid, x1 = 0.0401	0.898 ± 0.019 S/m	–	–
268.1 K, Liquid, x1 = 0.0586	0.867 ± 0.02 S/m	–	–
268.1 K, Liquid, x1 = 0.0803	0.755 S/m and 0.753 S/m	–	–
268.1 K, Liquid, x1 = 0.4688	0.052 ± 0.003 S/m	–	–
268.1 K, Liquid, x1 = 0.5001	0.048 ± 0.003 S/m	–	–
269.1 K, Glass, x1 = 0.1197	0.591 S/m and 0.59 S/m	–	–
269.1 K, Liquid, x1 = 0.0586	0.897 ± 0.019 S/m	–	–
269.1 K, Liquid, x1 = 0.1197	–	1084.1 ± 1	–
269.1 K, Liquid, x1 = 0.4688	0.054 ± 0.003 S/m	–	–
269.6 K, Glass, x1 = 0.4108	–	–	16300 ± 7600 mPa·s
269.6 K, Liquid, x1 = 0.4108	–	1107.2 ± 1	–
270.1 K, Glass, x1 = 0.1197	0.617 S/m and 0.616 S/m	–	19170 mPa·s
270.1 K, Glass, x1 = 0.4108	–	–	5510 ± 1500 mPa·s
270.1 K, Liquid, x1 = 0.0401	0.968 ± 0.02 S/m	–	–
270.1 K, Liquid, x1 = 0.1197	–	1083.7 ± 1	–
270.1 K, Liquid, x1 = 0.4108	–	1107 ± 1	–
270.1 K, Liquid, x1 = 0.4688	0.059 S/m and 0.058 S/m	–	–
270.6 K, Glass, x1 = 0.4108	–	–	2431 ± 460 mPa·s
270.6 K, Liquid, x1 = 0.4108	–	1106.7 ± 1	–
271.1 K, Glass, x1 = 0.1197	0.641 S/m and 0.639 S/m	–	16390 ± 7600 mPa·s
271.1 K, Glass, x1 = 0.4108	0.1 ± 0.003 S/m	–	1385 ± 210 mPa·s
271.1 K, Liquid, x1 = 0.0803	0.862 ± 0.019 S/m	–	–
271.1 K, Liquid, x1 = 0.1197	–	1083.1 ± 1	–
271.1 K, Liquid, x1 = 0.4108	–	1106.4 ± 1	–
271.6 K, Glass, x1 = 0.4108	–	–	889.3 ± 110 mPa·s
271.6 K, Liquid, x1 = 0.4108	–	1106.1 ± 1	–
272.1 K, Glass, x1 = 0.1197	0.667 ± 0.014 S/m	–	11470 ± 4400 mPa·s
272.1 K, Glass, x1 = 0.4108	0.104 ± 0.003 S/m	–	–
272.1 K, Liquid, x1 = 0.0401	1.03 ± 0.022 S/m	–	–
272.1 K, Liquid, x1 = 0.1197	0.666 ± 0.015 S/m	1082.6 ± 1	–
272.1 K, Liquid, x1 = 0.4108	–	1105.7 ± 1	609.1 ± 67 mPa·s
273.1 K, Glass, x1 = 0.1197	–	–	9033 ± 3100 mPa·s
273.1 K, Glass, x1 = 0.1402	0.597 ± 0.013 S/m	–	–
273.1 K, Glass, x1 = 0.2119	0.371 S/m and 0.368 S/m	–	–
273.1 K, Glass, x1 = 0.3076	0.203 ± 0.005 S/m	–	–
273.1 K, Glass, x1 = 0.3555	0.147 ± 0.003 S/m	–	–
273.1 K, Glass, x1 = 0.4108	0.111 ± 0.004 S/m	–	–
273.1 K, Liquid, x1 = 0.0401	1.07 S/m	–	–
273.1 K, Liquid, x1 = 0.0586	1.04 S/m	–	–
273.1 K, Liquid, x1 = 0.0803	0.921 ± 0.02 S/m	–	–
273.1 K, Liquid, x1 = 0.1197	0.695 ± 0.015 S/m	1082 ± 1	–
273.1 K, Liquid, x1 = 0.4108	–	1105 ± 1	564.7 ± 60 mPa·s
273.1 K, Liquid, x1 = 0.4688	0.073 S/m and 0.07 S/m	–	–
273.1 K, Liquid, x1 = 0.5001	0.066 ± 0.003 S/m	–	–
274.1 K, Glass, x1 = 0.1197	–	–	6783 ± 2000 mPa·s
274.1 K, Liquid, x1 = 0.1197	0.723 ± 0.016 S/m	1081.5 ± 1.1	–
274.1 K, Liquid, x1 = 0.4108	0.117 ± 0.003 S/m	1104.3 ± 1	524.2 ± 54 mPa·s
275.1 K, Glass, x1 = 0.1197	–	–	4354 ± 1000 mPa·s
275.1 K, Liquid, x1 = 0.1197	0.75 ± 0.016 S/m	1080.9 ± 1	–
275.1 K, Liquid, x1 = 0.4108	0.123 ± 0.004 S/m	1103.6 ± 1	487.1 ± 49 mPa·s
276.1 K, Glass, x1 = 0.1197	–	–	2361 ± 430 mPa·s
276.1 K, Glass, x1 = 0.3555	0.169 ± 0.004 S/m	–	–
276.1 K, Liquid, x1 = 0.0803	1.02 ± 0.021 S/m	–	–
276.1 K, Liquid, x1 = 0.1197	–	1080.3 ± 1	–
276.1 K, Liquid, x1 = 0.4688	0.086 ± 0.003 S/m	–	–
277.1 K, Glass, x1 = 0.1197	–	–	1248 ± 170 mPa·s
277.1 K, Glass, x1 = 0.3555	0.181 ± 0.004 S/m	–	–
277.1 K, Liquid, x1 = 0.1197	0.807 S/m and 0.806 S/m	1079.7 ± 1	–
277.6 K, Glass, x1 = 0.3555	–	–	5137 ± 1300 mPa·s
277.6 K, Liquid, x1 = 0.3555	–	1100 ± 1	–
277.9 K, Glass, x1 = 0.3555	–	–	2995 ± 600 mPa·s and 2875 ± 560 mPa·s
277.9 K, Liquid, x1 = 0.3555	–	1099.9 ± 1	–
278.1 K, Glass, x1 = 0.1402	0.731 S/m and 0.732 S/m	–	–
278.1 K, Glass, x1 = 0.1605	0.677 ± 0.015 S/m	–	–
278.1 K, Glass, x1 = 0.2119	0.46 ± 0.01 S/m	–	–
278.1 K, Glass, x1 = 0.3076	0.259 S/m and 0.258 S/m	–	–
